Structures can show the parent of a compound that is named as a salt.
Key:
[1] = Solid state chemical stability on storage at elevated temperature and relative humidity; format: physicochemical; settings: for bis(POC) PMPA citrate% / mono(POC) PMPA citrate% / BPPF% / mono(POC) PMPA fumarate%: 0 days; for mono(POC) PMPA fumarate%: degradation product in stored BPPF
Excerpt: The solid state chemical stability of cBPPF and bis(POC)PMPA·citrate salt was compared by analyzing each compound after storage under different conditions.

[2] = Hygroscopicity at 92% relative humidity; format: physicochemical; settings: room temperature, up to 37 days
[3] = human, in vivo

CC(C)OC(=O)OCOP(=O)(CO[C@H](C)Cn1cnc2c(N)ncnc21)OCOC(=O)OC(C)C [bis(POC) PMPA citrate]
bis(POC) PMPA citrate% ([1]; 40°C, 75% relative humidity): 99.0% | mono(POC) PMPA citrate% ([1]; 40°C, 75% relative humidity, degradation product in stored citrate salt): 1.0% | bis(POC) PMPA citrate% ([1]; 60°C, 75% relative humidity): 99.0% | mono(POC) PMPA citrate% ([1]; 60°C, 75% relative humidity, degradation product in stored citrate salt): 1.0% | remaining at 336 h ([1]; solid, 75% rh, 40°C, 75% relative humidity, 14 days, read-out: bis(POC) PMPA citrate%): 96.9% | remaining at 720 h ([1]; solid, 75% rh, 40°C, 75% relative humidity, 30 days, read-out: bis(POC) PMPA citrate%): 92.9% | remaining at 1440 h ([1]; solid, 75% rh, 40°C, 75% relative humidity, 60 days, read-out: bis(POC) PMPA citrate%): 77.6% | remaining at 72 h ([1]; solid, 75% rh, 60°C, 75% relative humidity, 3 days, read-out: bis(POC) PMPA citrate%): 24% | remaining at 168 h ([1]; solid, 75% rh, 60°C, 75% relative humidity, 7 days, read-out: bis(POC) PMPA citrate%): 6.7% | degraded at 336 h ([1]; solid, 40°C, 75% relative humidity, 14 days, degradation product in stored citrate salt, read-out: mono(POC) PMPA citrate%): 3.1% | degraded at 720 h ([1]; solid, 40°C, 75% relative humidity, 30 days, degradation product in stored citrate salt, read-out: mono(POC) PMPA citrate%): 7.1% | degraded at 1440 h ([1]; solid, 40°C, 75% relative humidity, 60 days, degradation product in stored citrate salt, read-out: mono(POC) PMPA citrate%): 22.4% | degraded at 72 h ([1]; solid, 60°C, 75% relative humidity, 3 days, degradation product in stored citrate salt, other products were generated in addition, read-out: mono(POC) PMPA citrate%): 58.9% | degraded at 168 h ([1]; solid, 60°C, 75% relative humidity, 7 days, degradation product in stored citrate salt, other products were generated in addition, read-out: mono(POC) PMPA citrate%): 76.2%

9-[2-(R)-[[bis[[(isopropoxycarbonyl)oxy]methoxy] phosphinoyl]methoxy]propyl]-adenine•fumaric acid (1:1) [BPPF]
BPPF% ([1]; 40°C, 75% relative humidity): 99.0% | mono(POC) PMPA fumarate% ([1]; 40°C, 75% relative humidity): 1.0% | BPPF% ([1]; 60°C, 75% relative humidity): 99.0% | mono(POC) PMPA fumarate% ([1]; 60°C, 75% relative humidity): 1.0% | solid state chemical stability compared with bis(POC)PMPA citrate salt ([1]; storage at elevated temperature and relative humidity): more stable | hygroscopicity [2]: not hygroscopic | oral bioavailability [3]: 30-40%
